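Test compounds were applied to cells in 96-well plates for 48 hours at 5 doses. Abbreviation: GI50, concentration required for 50% inhibition of growth.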 Active and inactive are the calls of the source. No stated cut-off is given here; in the data, active = GI50 up to about 1.1 µM and inactive = higher.
Legend:
Test in all cases: NCI-60 cell line screen, 48 h
NCI-H23 = system: NCI-H23
786-0 = system: 786-0
HCC 2998 = system: HCC 2998
CCRF-CEM = system: CCRF-CEM
DU-145 = system: DU-145
SNB-19 = system: SNB-19
M14 = system: M14
EKVX = system: EKVX
OVCAR-4 = system: OVCAR-4
HOP-62 = system: HOP-62
OVCAR-5 = system: OVCAR-5
LOX IMVI = system: LOX IMVI
T47D = system: T47D
SK-MEL-2 = system: SK-MEL-2
KM12 = system: KM12
TK-10 = system: TK-10
NCI-H522 = system: NCI-H522
RXF 393 = system: RXF 393
NCI-H226 = system: NCI-H226
A498 = system: A498

Structure (SMILES) | GI50 (NCI-H23) | GI50 (786-0) | GI50 (HCC 2998) | GI50 (CCRF-CEM) | GI50 (DU-145) | GI50 (SNB-19) | GI50 (M14) | GI50 (EKVX) | GI50 (OVCAR-4) | GI50 (HOP-62) | GI50 (OVCAR-5) | GI50 (LOX IMVI) | GI50 (T47D) | GI50 (SK-MEL-2) | GI50 (KM12) | GI50 (TK-10) | GI50 (NCI-H522) | GI50 (RXF 393) | GI50 (NCI-H226) | GI50 (A498)
O=C(CCN1CCOCC1)Nc1ccc2sc3ccccc3c(=O)c2n1 | 49.1 µM (inactive) | 31.6 µM (inactive) | 33.9 µM (inactive) | 19.7 µM (inactive) | 47 µM (inactive) | 49.2 µM (inactive) | 37.8 µM (inactive) | 58.2 µM (inactive) | 61.1 µM (inactive) | 44.7 µM (inactive) | > 100 µM (inactive) | 19.6 µM (inactive) | 20.6 µM (inactive) | 64 µM (inactive) | 50.4 µM (inactive) | 37.4 µM (inactive) | 13.2 µM (inactive) | – | – | –
Cn1c2ccccc2c(=O)c2ccc(Cl)cc21 | > 10 µM (inactive) | > 10 µM (inactive) | > 10 µM (inactive) | > 10 µM (inactive) | – | 0.0676 µM (active) | – | 1.38 µM (inactive) | > 10 µM (inactive) | > 10 µM (inactive) | – | > 10 µM (inactive) | > 10 µM (inactive) | > 10 µM (inactive) | > 10 µM (inactive) | 7.5 µM (inactive) | – | > 10 µM (inactive) | – | –
N#CCCN(CCCN(C(=O)Nc1ccccc1)c1ccccc1)C(=O)Nc1ccccc1 | 61.7 µM (inactive) | > 100 µM (inactive) | > 100 µM (inactive) | 33.7 µM (inactive) | > 100 µM (inactive) | 64.3 µM (inactive) | > 100 µM (inactive) | > 100 µM (inactive) | > 100 µM (inactive) | > 100 µM (inactive) | > 100 µM (inactive) | > 100 µM (inactive) | > 100 µM (inactive) | > 100 µM (inactive) | 87.9 µM (inactive) | > 100 µM (inactive) | > 100 µM (inactive) | 46.5 µM (inactive) | > 100 µM (inactive) | –
C[C@@H](c1ccccc1)N1CO[C@@]2(C#Cc3ccc4c(c3)OCO4)CCC[C@@H]12 | 14.7 µM (inactive) | 17.8 µM (inactive) | 17.9 µM (inactive) | 19.8 µM (inactive) | 16.1 µM (inactive) | 16.1 µM (inactive) | 14.8 µM (inactive) | 20.3 µM (inactive) | 13.8 µM (inactive) | 15.8 µM (inactive) | 18.1 µM (inactive) | 12.7 µM (inactive) | 16.4 µM (inactive) | 18.3 µM (inactive) | 15.7 µM (inactive) | 15.5 µM (inactive) | – | 11.6 µM (inactive) | 20.6 µM (inactive) | –
CCOC(=O)c1nc2ccccc2nc1Nc1cc(OC)c(OC)c(OC)c1 | > 100 µM (inactive) | > 100 µM (inactive) | > 100 µM (inactive) | > 100 µM (inactive) | > 100 µM (inactive) | > 100 µM (inactive) | > 100 µM (inactive) | > 100 µM (inactive) | > 100 µM (inactive) | > 100 µM (inactive) | > 100 µM (inactive) | – | > 100 µM (inactive) | > 100 µM (inactive) | > 100 µM (inactive) | > 10 µM (inactive) | > 100 µM (inactive) | – | – | –
O=C1CCCC(O)=C1SC1=C(O)CCCC1=O | > 100 µM (inactive) | 81.1 µM (inactive) | 70.1 µM (inactive) | 71.6 µM (inactive) | – | > 100 µM (inactive) | 56.4 µM (inactive) | > 100 µM (inactive) | > 100 µM (inactive) | – | > 100 µM (inactive) | > 100 µM (inactive) | – | > 100 µM (inactive) | > 100 µM (inactive) | > 100 µM (inactive) | > 100 µM (inactive) | > 100 µM (inactive) | > 100 µM (inactive) | 39.2 µM (inactive)
COc1cc(C2SCC(=O)N2c2ccc(NC(=O)c3ccc(N4C(=O)CSC4c4cc(OC)c(OC)c(OC)c4)cc3)cc2)cc(OC)c1OC (stereo not drawn) | 49.4 µM (inactive) | 70 µM (inactive) | > 100 µM (inactive) | 45.5 µM (inactive) | > 100 µM (inactive) | 84.1 µM (inactive) | 73.1 µM (inactive) | 57 µM (inactive) | 33 µM (inactive) | 76.4 µM (inactive) | 95.1 µM (inactive) | 31.8 µM (inactive) | 19.8 µM (inactive) | 91.6 µM (inactive) | 33 µM (inactive) | > 100 µM (inactive) | 40.2 µM (inactive) | 58.6 µM (inactive) | – | –
Cc1ccc([S+]([O-])c2ccccc2[N+](=O)[O-])cc1 (stereo not drawn) | 32.6 µM (inactive) | > 100 µM (inactive) | 78.9 µM (inactive) | 28.6 µM (inactive) | – | 58.3 µM (inactive) | > 100 µM (inactive) | – | 39.1 µM (inactive) | > 100 µM (inactive) | 72.1 µM (inactive) | 38.5 µM (inactive) | – | > 100 µM (inactive) | 54.6 µM (inactive) | > 100 µM (inactive) | 33.3 µM (inactive) | > 100 µM (inactive) | 30.5 µM (inactive) | 28.1 µM (inactive)
COc1ccc2c3ccc4c(c3n(C)c2c1)C(=O)C=CC4=O | 52.1 µM (inactive) | 17.9 µM (inactive) | 84.5 µM (inactive) | 2.93 µM (inactive) | – | > 100 µM (inactive) | > 100 µM (inactive) | 72.8 µM (inactive) | 29.6 µM (inactive) | > 100 µM (inactive) | – | – | – | – | – | – | 10.4 µM (inactive) | 18.4 µM (inactive) | > 100 µM (inactive) | > 100 µM (inactive)
O=C1CCC2(c3ccc(Cl)cc3)Nc3ccncc3N12 (stereo not drawn) | > 10 µM (inactive) | > 10 µM (inactive) | – | > 10 µM (inactive) | 4.4 µM (inactive) | > 10 µM (inactive) | > 10 µM (inactive) | > 10 µM (inactive) | > 10 µM (inactive) | – | > 10 µM (inactive) | > 10 µM (inactive) | – | > 10 µM (inactive) | > 10 µM (inactive) | > 10 µM (inactive) | > 10 µM (inactive) | – | > 10 µM (inactive) | –
O=C(/C=C/c1ccccc1O)C(c1ccccc1)c1ccccc1 | > 100 µM (inactive) | 51.1 µM (inactive) | > 100 µM (inactive) | 60.8 µM (inactive) | – | > 100 µM (inactive) | > 100 µM (inactive) | > 100 µM (inactive) | 48.5 µM (inactive) | > 100 µM (inactive) | > 100 µM (inactive) | 24.1 µM (inactive) | – | > 100 µM (inactive) | 98.9 µM (inactive) | > 100 µM (inactive) | 65.6 µM (inactive) | > 100 µM (inactive) | > 100 µM (inactive) | > 100 µM (inactive)
CS(=O)(=O)C1S(=O)(=O)OCCOS1(=O)=O | > 100 µM (inactive) | > 100 µM (inactive) | > 100 µM (inactive) | – | – | > 100 µM (inactive) | > 100 µM (inactive) | > 100 µM (inactive) | > 100 µM (inactive) | > 100 µM (inactive) | > 100 µM (inactive) | > 100 µM (inactive) | – | – | > 100 µM (inactive) | > 100 µM (inactive) | > 100 µM (inactive) | > 100 µM (inactive) | 7.93 µM (inactive) | > 100 µM (inactive)
COc1ccc(N2C(=O)/C(=C/c3ccc(N(CCC#N)CCC#N)cc3)N=C2c2ccccc2)c(OC)c1 | 60.3 µM (inactive) | > 100 µM (inactive) | > 100 µM (inactive) | 21.9 µM (inactive) | > 100 µM (inactive) | > 100 µM (inactive) | > 100 µM (inactive) | > 100 µM (inactive) | > 100 µM (inactive) | – | > 100 µM (inactive) | – | 27.1 µM (inactive) | – | 35.5 µM (inactive) | > 100 µM (inactive) | 22 µM (inactive) | – | 27.4 µM (inactive) | –
Cc1ccc(C)n1-c1ccccc1C1SCCCS1 | > 100 µM (inactive) | > 100 µM (inactive) | > 100 µM (inactive) | 59.8 µM (inactive) | > 100 µM (inactive) | > 100 µM (inactive) | 57.1 µM (inactive) | > 100 µM (inactive) | > 100 µM (inactive) | 50.8 µM (inactive) | > 100 µM (inactive) | > 100 µM (inactive) | – | > 100 µM (inactive) | > 100 µM (inactive) | > 100 µM (inactive) | > 100 µM (inactive) | > 100 µM (inactive) | > 100 µM (inactive) | > 100 µM (inactive)
CCC1(O)CC(OC2CC(N(C)C)C(OC3CC(O)C(OC4OC(C)C(=O)C=C4N)C(C)O3)C(C)O2)c2c(cc3c(c2O)C(=O)c2c(O)cccc2C3=O)C1C(=O)OC (stereo not drawn) | 0.104 µM (active) | 0.00254 µM (active) | 0.0153 µM (active) | 0.00169 µM (active) | 0.00637 µM (active) | 0.0282 µM (active) | 0.0345 µM (active) | 0.0224 µM (active) | 0.01 µM (active) | 0.0184 µM (active) | 0.0678 µM (active) | 0.046 µM (active) | 0.0292 µM (active) | 0.0221 µM (active) | 0.00525 µM (active) | 0.06 µM (active) | 0.0355 µM (active) | – | 0.115 µM (active) | –
C=C(C)C1CC=C(C)C(=O)C1 (stereo not drawn) [CARVONE] | > 100 µM (inactive) | > 100 µM (inactive) | > 100 µM (inactive) | > 100 µM (inactive) | > 100 µM (inactive) | > 100 µM (inactive) | > 100 µM (inactive) | > 100 µM (inactive) | > 100 µM (inactive) | > 100 µM (inactive) | > 100 µM (inactive) | > 100 µM (inactive) | > 100 µM (inactive) | > 100 µM (inactive) | > 100 µM (inactive) | > 100 µM (inactive) | > 100 µM (inactive) | – | > 100 µM (inactive) | –

— ChEMBL document CHEMBL1201862, “PubChem BioAssay data set” (2004)
